Data taken from patent US8492347B2, “Peptide for induction of immune tolerance as treatment for systemic lupus erythematosus” (The Regents of the University of California, priority 2007, dated 2013).
Where two headings read alike, the source gives them in different places. Where no end group is shown, it is not given here. [ ]: non-standard residue; d: D form.

Tests used:
[1] = system: BWF1 mice; experiment: FACS of CD8+ Foxp3+ T cells in mesenteric nodes and spleen after peptide gavage; type: in vivo
Method: Lastly, we synthesized the D-form of pCons, for the purpose of administering it orally since D-forms are resistant to acid degradation. […] Specifically, studies have been completed in which BWF1 mice were fed 5 days a week out of every 30 days saline, low dose pCons (25 ug), middle dose (100 ug) or high dose (250 ug) by gavage. Both D and L-forms are being studied. Most of those mice were sacrificed to study characteristics of cells in mesenteric lymph nodes and spleens. Observations from these studies are disclosed in the following paragraphs.
First, we observed that CD8+ T cells that express Foxp3 (known to be inhibitory T cells for SLE) were induced in mesenteric nodes and spleen cells by the highest dose (250 ug) of D-peptide and by the middle dose (100 ug) and high dose of L-peptide. Thus the administration of low/middle dose D-peptide and of low dose L-peptide was not effective. Data were obtained by FACS analysis of total node populations, with percent of CD8+ Foxp3+ cells in untreated mice <1%, compared to 3-6% of total CD8+ cells in the effective doses of peptide. These changes are high enough to be clinically significant according to our earlier data with L-peptide given i.v.

[2] = system: naïve BWF1 CD4+ CD25− helper T cells cultured with naïve BWF1 B cells; experiment: anti-DNA antibody-forming cells in cultures of BWF1 B cells plus CD4+ CD25− helper T cells after i.v. peptide; type: in vivo, mice
Method: FIG. 1 provides a bar graph of data showing that the intravenous administration of either 500 or 250 ug of D-pCons is effective in suppressing anti-DNA antibody production by naïve BWF1 CD4+ CD25− helper T cells cultured with naïve BWF1 B cells. The numbers of splenic B cells making IgG anti-DNA dropped from 65 per 10^6 B cells in the untreated group to 30-32 in the tolerized groups.
FIG. 2 provides a bar graph of data from studies of L-pCons and D-pCons. Both D-pCons and L-pCons peptides were given once i.v. and spleen cells harvested 2 weeks later. Note that for L-pCons, the combination of naïve B cells plus CD4+ CD25− helper T cells gave a mean of 160 anti-DNA antibody-forming cells per 10^6 B cells (column 3), whereas addition of CD4+ CD25+ Treg from tolerized mice to the culture reduced the AFC to 25 per 10^6 B cells (column 4). These differences were statistically significant, p<0.001. Note also that the suppression was abrogated by incubation of the cultures with antibodies to GITR (column 6) or TGFb-LAP (column 7), but not by CTLA4-Ig (column 8).
For tolerance induction, ten-to-twelve week-old BWF1 mice received a single i.v. dose of 1 mg of one of the peptides, dissolved in saline, as reported previously (see, e.g. Singh et al., J Clin Invest 1995; 96:2990-6). Controls in selected experiments were either treated with saline or control peptides.
Assays were performed to measure anti-DNA Ab according to art accepted protocols (see, e.g. Singh et al., J Clin Invest 1995; 96:2990-6; Hahn et al., Arthritis Rheum 2001; 44:432-41; La Cava et al., J Immunol 2004; 173:3542-8; Hahn et al., Ann NY Acad Sci 2005; 1051:433-41; Hahn et al., J Immunol 2005; 175:7728-37; Singh et al., J Immunol 2007; 178:7649-57). […] After 5 days, culture supernatants were collected, concentrated, and analyzed for anti-DNA IgG by ELISA. […]

[3] = system: mice; experiment: induction of Treg and Ti in mice by administered peptide; type: in vivo; settings: administered subcutaneously (so in the source)
[4] = system: BWF1 mice; experiment: single adoptive transfer of CD8+ Ti from tolerized mice to irradiated syngeneic recipients; type: in vivo; settings: single transfer of 10×10^6 CD8+ T cells from spleens of tolerized mice
From the text: FIG. 4 provides graphs of data showing the CD8+ Ti induced by i.v. administration of L-pCons are potent in suppressing nephritis (left panel) and prolonging survival in vivo (right panel) (see, e.g. Hahn et al., J Immunol 2005; 175:7728-37).

[5] = system: peripheral blood mononuclear cells from patients with SLE; experiment: expansion of CD4+ CD25hi T cells in SLE patient cells cultured with peptide for 5 days; type: cell-based, human; settings: for expansion of CD4+ CD25hi (Foxp3+) regulatory T cell populations: SLE patient cells in culture, 5 days
Method: In these experiments, pCons and other stimulatory (peptides B and D) peptides and non-stimulatory peptides (peptide A) that are wild peptides from human monoclonal antibodies to DNA were incubated with peripheral blood mononuclear cells from patients with SLE.
In FIGS. 6 and 7, we show data on the ability of L-pCons to mature the CD4+ CD25hiFoxp3+ natural regulatory cells in patients with SLE. In these experiments, pCons and other stimulatory (peptides B and D) peptides and non-stimulatory peptides (peptide A) that are wild peptides from human monoclonal antibodies to DNA were incubated with peripheral blood mononuclear cells from patients with SLE. […] Such cells are thought to be regulatory T cells.
Next, we studied the ability of L-pCons to induce Treg in T cells from the peripheral blood of patients with SLE (36 patients, 32 healthy controls). Stimulatory control peptides B and D are wild peptides from human mAb anti-DNA; peptide A is a nonstimulatory negative control (see, e.g. Kaki et al., Lupus 2004; 13:490-500). […] These expanded cells were regulatory (FIG. 8): they suppressed proliferation and IFNg synthesis by autologous CD4+ CD25− cells in culture. Numbers of CD4+ Foxp3+ T cells were also expanded and silencing of Foxp3 by transfection with specific siRNA for Foxp3 abrogated the suppressive capacity of the induced T reg by ½ (3rd panel, FIG. 8). […] Patients who were anti-DNA negative were unlikely to respond to pCons with expansion of Treg (see, e.g. La Cava et al, Lupus. 2008; 17(5):421-5).

[6] = system: BWF1 mice; settings: cited from earlier work
[7] = high dose i.v. tolerogen once a month, BWF1 females

| Sequence | induction of CD8+ T cells that express Foxp3 ([1]; low dose 25 ug by gavage) | induction of CD8+ T cells that express Foxp3 ([1]; middle dose 100 ug by gavage) | suppression of anti-DNA antibody production ([2]; 125 ug dose i.v.) | numbers of splenic B cells making IgG anti-DNA ([2]; 500 or 250 ug i.v. (tolerized groups), untreated group 65) | induction of Treg and Ti [3] | anti-DNA antibody-forming cells (AFC) ([2]; peptide once i.v., spleen cells 2 weeks later, CD4+ CD25+ Treg from tolerized mice added to culture, 160 without Treg, p<0.001) [per 10^6 B cells] | effect of peptide-induced CD8+ Ti on nephritis and survival [4] | patients showing expansion of CD4+ CD25hi cells to more than the usual 2-3% of peripheral blood MNC ([5]; 5 days in culture) | expansion of CD4+ CD25hi (Foxp3+) regulatory T cell populations [5] | expansion of CD4+ CD25hi (Foxp3+) regulatory T cell populations ([5]; listed as pCons) | appearance of anti-DNA, anti-phospholipid, and proteinuria [6, 7] | prolongation of survival [6, 7] [week] | prolongs survival ([6]; started after nephritis and anti-DNA antibodies have appeared) | prolongs survival ([6]; started prior to disease onset) |
| --- | --- | --- | --- | --- | --- | --- | --- | --- | --- | --- | --- | --- | --- | --- |
| FIEWNKLRFRQGLEW ([dF][dI][dE][dW][dN][dK][dL][dR][dF][dR][dQ]G[dL][dE][dW]) [D-pCons] | not effective | not effective | not effective in inducing suppression | 30-32 per 10^6 B cells | induces Treg and Ti | – | – | – | – | – | – | – | – | – |
| FIEWNKLRFRQGLEW [L-pCons] | – | – | – | – | – | 25 | potent in suppressing nephritis and prolonging survival in vivo | Thirteen of 23 | expand significantly | expanded CD4+ CD25hi populations in some patients | significant delay | 24 | 3-4 months | 4-5 months |
